Literature values in patent US20230024950A1, “METHODS FOR TREATING NEURODEGENERATIVE DISORDERS” (Alzheon, Inc., priority 2019, published 2023).

Assays:
[1] = not given; remark: listed apart in the source
Aβ oligomers = Aβ oligomers (Homo sapiens, UniProt P05067); conditions: in vitro
Sequence of Aβ oligomers (P05067 672-713 limits assumed): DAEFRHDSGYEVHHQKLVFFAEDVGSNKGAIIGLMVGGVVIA

Structure (SMILES)	plasma exposure compared with tramiprosate from the Phase 3 studies (Phase 1b)	pharmacokinetics and oral tolerability compared with tramiprosate (oral)	safety profile ([1]; Phase 3 trials and safety extension study, exposures of up to 2.5 years)	effect on MRI imaging: brain hippocampal volume (hippocampus atrophy) ([1]; Phase 3 trials, mild-to-moderate AD, dose-dependent)	benefit on cognition ([1]; subgroup analysis of APOE4/4 homozygotes, 100 mg BID or 150 mg BID over 78 weeks)	cognitive efficacy ([1]; subset of APOE4 carriers, especially APOE4/4 homozygotes)	formation of Aβ oligomers (Aβ oligomers)
CC(C)[C@H](N)C(=O)NCCCS(=O)(=O)O [ALZ-801, valyl-3-amino-1-propanesulfonic acid]	bioequivalence to plasma exposures to tramiprosate	improved pharmacokinetics and oral tolerability over tramiprosate					
NCCCS(=O)(=O)O [Tramiprosate, 3-amino-1-propanesulfonic acid]			favorable safety profile	slowing the reduction of brain hippocampal volume	positive and clinically meaningful benefit on cognition	positive cognitive efficacy	inhibits the formation of Aβ oligomers in vitro
